Reference: ChEMBL document CHEMBL1201862, “PubChem BioAssay data set” (2004)
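48-hour exposure; five concentrations; linearly interpolated endpoints. GI50 marks 50% less growth.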 The source made the active and inactive calls. Rule as the data show it: active = GI50 up to about 1.1 µM and inactive = higher.

Key:
Assay in all cases: NCI tumour cell line growth inhibition, 48 h
HOP-18 = test system: HOP-18
DMS-273 = test system: DMS-273
KM-20L2 = test system: KM-20L2
RXF 631 = test system: RXF 631
DLD-1 = test system: DLD-1
SNB-78 = test system: SNB-78
XF498 = test system: XF498
M19-MEL = test system: M19-MEL
BT-549 = test system: BT-549

For `N#CCCN(CCC#N)c1ccc(C(Sc2ccccc2)C(NC(=O)c2cc([N+](=O)[O-])ccc2Cl)C(=O)Sc2ccccc2)cc1` (configuration not stated), the GI50 (HOP-18) was 24 µM (inactive), the GI50 (DMS-273) was 1.56 µM (inactive) and the GI50 (KM-20L2) was 2.57 µM (inactive). For the same compound, the GI50 (RXF 631) was 2.03 µM (inactive), the GI50 (DLD-1) was 2.52 µM (inactive) and the GI50 (SNB-78) was 4.66 µM (inactive). The GI50 (XF498) was 8.67 µM (inactive) and the GI50 (M19-MEL) was 5.36 µM (inactive).
For `Cc1ccc2oc(=O)c3c(O)c4cccc(OC5OC(C)C6O[C@@H](c7ccccc7)OC6C5OC5OC(C)C(O)C(O)C5O)c4c4oc(=O)c1c2c34` (some centres not stated), the GI50 (HOP-18) was 0.466 µM (active), the GI50 (DMS-273) was 0.0278 µM (active) and the GI50 (KM-20L2) was 0.0354 µM (active). The GI50 (RXF 631) was 0.0456 µM (active), the GI50 (DLD-1) was 0.156 µM (active) and the GI50 (SNB-78) was 0.708 µM (active). The GI50 (XF498) was 0.0486 µM (active) and the GI50 (M19-MEL) was 0.11 µM (active).
For `Cc1cccc(C2=NC(C)(C)C(C)(C)N=C2c2cccc(C)n2)n1`, the GI50 (HOP-18) was > 100 µM (inactive), the GI50 (DMS-273) was > 100 µM (inactive) and the GI50 (KM-20L2) was 84.1 µM (inactive). The GI50 (RXF 631) was > 100 µM (inactive), the GI50 (DLD-1) was 98.6 µM (inactive) and the GI50 (SNB-78) was > 100 µM (inactive). The GI50 (XF498) was > 100 µM (inactive) and the GI50 (M19-MEL) was > 100 µM (inactive).
In the case of `COc1ccc2c(c1)CC1c3c(ccc(OC)c3O)CC2N1C` (configuration not stated), the GI50 (HOP-18) is reported as 71.1 µM (inactive), the GI50 (DMS-273) is reported as 22.4 µM (inactive) and the GI50 (KM-20L2) is reported as 28.4 µM (inactive). For the same compound, the GI50 (RXF 631) was 22.6 µM (inactive), the GI50 (DLD-1) was 68.5 µM (inactive) and the GI50 (SNB-78) was 24.3 µM (inactive). For the same compound, the GI50 (XF498) was 21.3 µM (inactive) and the GI50 (M19-MEL) was 23 µM (inactive).
For `CN(C)CC1CC/C(=C\c2ccc3c(c2)OCO3)C1=O` (configuration not stated), the GI50 (HOP-18) was 15.9 µM (inactive), the GI50 (DMS-273) was 16.8 µM (inactive) and the GI50 (KM-20L2) was 19.7 µM (inactive). The GI50 (RXF 631) was 12.7 µM (inactive), the GI50 (DLD-1) was 6.84 µM (inactive) and the GI50 (SNB-78) was 21.8 µM (inactive). The GI50 (XF498) was 18.3 µM (inactive), the GI50 (M19-MEL) was 16.4 µM (inactive) and the GI50 (BT-549) was 11.2 µM (inactive).
`COC1=C(C(=O)OC(C)(C)C)C23CCCCC2(C(C(=O)OC(C)(C)C)=C(OC)C3C(=O)OC(C)(C)C)C1C(=O)OC(C)(C)C` (configuration not stated) was tested, and the GI50 (HOP-18) was 12.5 µM (inactive), the GI50 (DMS-273) was 10.1 µM (inactive) and the GI50 (KM-20L2) was 16.7 µM (inactive). The GI50 (RXF 631) was 8.15 µM (inactive), the GI50 (DLD-1) was 39.9 µM (inactive) and the GI50 (SNB-78) was 72.9 µM (inactive). The GI50 (XF498) was 38.1 µM (inactive) and the GI50 (M19-MEL) was 25 µM (inactive).
With `CNC(=S)NC(=S)N(C)C` the GI50 (HOP-18) was > 100 µM (inactive), the GI50 (DMS-273) was 0.869 µM (active) and the GI50 (KM-20L2) was > 100 µM (inactive). For the same compound, the GI50 (RXF 631) was > 100 µM (inactive), the GI50 (DLD-1) was 5.48 µM (inactive) and the GI50 (SNB-78) was > 100 µM (inactive). The GI50 (XF498) was > 100 µM (inactive).
In the case of `COC(=O)C(=O)C(C(=O)C(=O)Nc1cc(Cl)c(Cl)cc1Cl)c1nc2ccc([N+](=O)[O-])cc2nc1O` (configuration not stated), the GI50 (HOP-18) is reported as 8.81 µM (inactive), the GI50 (DMS-273) is reported as > 100 µM (inactive) and the GI50 (KM-20L2) is reported as > 100 µM (inactive). The GI50 (RXF 631) was > 100 µM (inactive), the GI50 (SNB-78) was > 100 µM (inactive) and the GI50 (XF498) was 7.1 µM (inactive). The GI50 (M19-MEL) was > 100 µM (inactive).
In the case of `CCCCCCCCCCCCCP(=O)(O)O`, the GI50 (HOP-18) is reported as > 100 µM (inactive), the GI50 (DMS-273) is reported as 50.9 µM (inactive) and the GI50 (KM-20L2) is reported as > 100 µM (inactive). For the same compound, the GI50 (RXF 631) was > 100 µM (inactive), the GI50 (DLD-1) was > 100 µM (inactive) and the GI50 (SNB-78) was > 100 µM (inactive). The GI50 (XF498) was > 100 µM (inactive) and the GI50 (M19-MEL) was > 100 µM (inactive).
With `CCOC(=O)C1N(S(=O)(=O)c2ccc(C)cc2)CCC12C(c1ccc(OC)c(OC)c1)=Nc1ccccc12` (configuration not stated) the GI50 (HOP-18) was > 100 µM (inactive), the GI50 (DMS-273) was > 100 µM (inactive) and the GI50 (KM-20L2) was > 100 µM (inactive). For the same compound, the GI50 (RXF 631) was > 100 µM (inactive), the GI50 (DLD-1) was > 100 µM (inactive) and the GI50 (SNB-78) was > 100 µM (inactive). The GI50 (XF498) was 30.1 µM (inactive) and the GI50 (M19-MEL) was > 100 µM (inactive).
In the case of `COc1cccc(N2C(=O)c3c(c4[nH]c5ccccc5c4c4ccc(C(C)(C)C)cc34)C2=O)c1`, the GI50 (HOP-18) is reported as > 100 µM (inactive), the GI50 (DMS-273) is reported as > 100 µM (inactive) and the GI50 (KM-20L2) is reported as > 100 µM (inactive). The GI50 (RXF 631) was > 100 µM (inactive), the GI50 (DLD-1) was > 100 µM (inactive) and the GI50 (SNB-78) was > 100 µM (inactive). For the same compound, the GI50 (XF498) was > 100 µM (inactive) and the GI50 (M19-MEL) was > 100 µM (inactive).
